Laboratory results taken from patent US20160264636A1, “PEPTIDE INHIBITORS OF TEAD/YAP-TAZ INTERACTION” (UNIVERSITE PIERRE ET MARIE CURIE (PARIS 6), priority 2013, published 2016).
Read-outs that look alike come from different tables or passages of the source.

Tests used:
[1] = system: colon, lung and ovarian cancer cell lines; experiment: MTT cytotoxicity, comparison of TAZ LV and VL peptides; type: cell-based, human; conditions: all lines tested except ES2: HCT116, HT29, SW480, OVCAR8, A549, HT1975; 72 h; 0.1 to 100 μM (FIGS. 5 to 8)
Protocol: (§1) The cytotoxicity of penetrating peptides or chemotherapeutic agents, alone or in combination, was evaluated by the (3-(4,5-dimethylthiazol-2-yl)-2,5-diphenyltetrazolium bromide) tetrazolium (MTT) reduction assay. The cells were seeded in 96-well plates (100 μL/well) at a cell density defined from growth curves. After 24 hours of incubation, cells were treated with the peptides for 72 hours. The wells were rinsed two times with RPMI. After washing, 10 μl of stock MTT solution (5 mg/ml; MTT (SIGMA #M-2128) in PBS Dubecco's 1× without Ca^2+ and Mg^2+) was added to a final volume of 100 μl of culture medium. Cell lines were incubated for additional 4 hours at 37° C. under humid atmosphere with 5% (v/v) CO2. The formation of blue formazan crystals was detected under a microscope. An equal volume of 10% SDS (MERCK, #926.238) in 10 mM HCl was added to each well and the plate was placed in the incubator overnight to dissolve formazan crystals. The plates were mixed to ensure complete solubilisation of formazan crystals and absorbance was measured at 570 nm and 620 nm. The percentage of viable cells was estimated using the formula: % cell viability=ΔOD(570-620) treated/ΔOD(570-620)control×100.

A549 cells = type: cell-based
Protocol: (§2) H1650, H1975, H1299, A549 cell lines were cultured in DMEM medium supplemented with 10% of FCS. HBEC cell lines (wt and Ras V12) were cultured in KSFM supplemented with growth factors. All the cell lines come from human non small cell lung cancer (NSCLC).
as §1
(§3) Cell-penetrating peptides (CPPs) comprising the binding site of TEAD to TAZ or YAP or of YAP to TEAD (TAZ, TEAD and YAP peptides, respectively) were chemically synthesized. The effect of the peptides on cell viability was assayed on several human non small cell lung cancer (NSCLC) cell lines. All the lung cancer cell lines were treated for 72 h with different peptide concentrations. Cytotoxicity was analysed as described in Materials and Methods.

HBEC wt cells = type: cell-based; conditions: for Cell viability (%): HBEC wt
Protocol: as §2, §1, §3

H1975 cells = type: cell-based
Protocol: as §2, §1, §3

H1650 cells = type: cell-based
Protocol: as §2, §1, §3

H1299 cells = type: cell-based
Protocol: as §2, §1, §3

HBEC RasV12 cells = type: cell-based
Protocol: as §2, §1, §3

ES2 cells = experiment: MTT cytotoxicity assay, ES2; type: cell-based; conditions: Table VIII, 72 h, MTT, 25% cell death
Protocol: as §1
(§4) ES2, IGROV-1, OVCAR8 and SKOV3 cell lines come from human ovarian cancer.
as §3, with “ovarian” for “non small cell lung”, “cancer” for “cancer (NSCLC)”, “ovarian” for “lung”, “example 2.” for “Materials and Methods.”

SKOV3 cells = experiment: MTT cytotoxicity assay, SKOV3; type: cell-based; conditions: Table VIII, 72 h, MTT, 25% cell death
Protocol: as §1, §4
as §3, with “ovarian” for “non small cell lung”, “cancer” for “cancer (NSCLC)”, “ovarian” for “lung”, “example 2.” for “Materials and Methods.”

OVCAR8 cells = experiment: MTT cytotoxicity assay, OVCAR8; type: cell-based; conditions: Table VIII, 72 h, MTT, 25% cell death
Protocol: as §1, §4
as §3, with “ovarian” for “non small cell lung”, “cancer” for “cancer (NSCLC)”, “ovarian” for “lung”, “example 2.” for “Materials and Methods.”

IGROV-1 cells = experiment: MTT cytotoxicity assay, IGROV; type: cell-based; conditions: Table VIII, 72 h, MTT, 25% cell death
Protocol: as §1, §4
as §3, with “ovarian” for “non small cell lung”, “cancer” for “cancer (NSCLC)”, “ovarian” for “lung”, “example 2.” for “Materials and Methods.”

[2] = Table II, 72 h, MTT, 25% cell death
[3] = Table III, drug alone vs its vehicle (HPCD10%, NaCl or Glucose 5%)
[4] = Table IV, drug alone vs its vehicle (Glucose 5% or NaCl)
[5] = Table V, drug alone vs its vehicle (Glucose 5% or NaCl)

VKKKKIKAEIKI-PPHAFFVLKFWADLNWGPSGEEAGAG (VKKKKIKAEIKIPPHAFFVLKFWADLNWGPSGEEAGAG) [TAZ “VL”]
effect on cellular viability, TAZ “LV” compared with TAZ “VL” [1]: same effect

C#Cc1cccc(Nc2ncnc3cc(OCCOC)c(OCCOC)cc23)c1 [Tarceva, Erlotinib]
Letal Dose (μM) LD25 (A549 cells; [2]): 0 µM
Cell viability (%) (A549 cells; [3]): −52.89%
Cell viability (%) (A549 cells; [4]): −60.75%
Cell viability (%) (A549 cells; [5]): −67.3%
Letal Dose (μM) LD25 (HBEC wt cells; Table II, HBEC WT, 72 h, MTT, 25% cell death): 0.04 µM
Cell viability (%) (HBEC wt cells; [3]): −15.63%
Cell viability (%) (HBEC wt cells; [4]): −55.15%
Cell viability (%) (HBEC wt cells; [5]): −37.28%
Letal Dose (μM) LD25 (H1975 cells; [2]): 3 µM
Cell viability (%) (H1975 cells; [3]): −49.68%
Cell viability (%) (H1975 cells; [4]): −77.63%
Cell viability (%) (H1975 cells; [5]): −56.6%
Letal Dose (μM) LD25 (H1650 cells; [2]): 0.4 µM
Cell viability (%) (H1650 cells; [3]): −47.11%
Cell viability (%) (H1650 cells; [4]): −38.72%
Cell viability (%) (H1650 cells; [5]): −53.13%
Letal Dose (μM) LD25 (H1299 cells; [2]): >100 µM
Cell viability (%) (H1299 cells; [3]): −39.83%
Cell viability (%) (H1299 cells; [4]): −60.68%
Cell viability (%) (H1299 cells; [5]): −61.14%
Letal Dose (μM) LD25 (HBEC RasV12 cells; [2]): 0.001 µM
Cell viability (%) (HBEC RasV12 cells; [3]): −4.596%
Cell viability (%) (HBEC RasV12 cells; [4]): −25.67%
Cell viability (%) (HBEC RasV12 cells; [5]): 0.2682%

N.N.O=C([O-])C1(C(=O)[O-])CCC1.[Pt+2] [Carboplatin]
Letal Dose (μM) LD25 (ES2 cells): 10 µM
Letal Dose (μM) LD25 (SKOV3 cells): 18 µM
Letal Dose (μM) LD25 (OVCAR8 cells): 30 µM
Letal Dose (μM) LD25 (IGROV-1 cells): 30 µM

CC(=O)O[C@H]1C(=O)[C@@]2(C)[C@H]([C@H](OC(=O)c3ccccc3)[C@]3(O)C[C@H](OC(=O)[C@H](O)[C@@H](NC(=O)c4ccccc4)c4ccccc4)C(C)=C1C3(C)C)[C@]1(OC(C)=O)CO[C@@H]1C[C@@H]2O [Paclitaxel]
Letal Dose (μM) LD25 (ES2 cells): 0.004 µM
Letal Dose (μM) LD25 (SKOV3 cells): 0.005 µM
Letal Dose (μM) LD25 (OVCAR8 cells): 0.003 µM
Letal Dose (μM) LD25 (IGROV-1 cells): 0.002 µM
